{
  "source": "patent US12325744B2",
  "about": "“Methods for reducing post-operative cognitive dysfunction (POCD)” (The Kennedy Trust for Rheumatology Research, priority 2010, dated 2025)",
  "key": {"IL-6": {"test_system": "IL-6", "experiment": "Plasma IL-6 by ELISA after LPS injection", "format": "in vivo, mice", "conditions": "LPS 1 mg/kg i.p., IL-1Ra 100 mg/kg s.c. immediately before LPS", "protocol": "Treatment. LPS derived from Escherichia Coli endotoxin ([…], InvivoGen, USA, 1 mg/kg) was dissolved in normal saline and injected intraperitoneally. IL-1Ra (Amgen, Anakinra 100 mg/kg, Nederlands) was given subcutaneously immediately before LPS administration. Dose response curve from LPS or IL-1Ra was obtained from our pilot studies to provoke or to suppress moderate degree of microglia activation respectively. Control animals were injected with equivalent volumes (0.1 ml) of saline. Mice from each treatment group were randomly assigned for assessment of either cytokine response or cognitive behavior, in order to obviate possible confounding effects of behavioral testing on inflammatory markers.\nPlasma cytokine measurement. Blood was sampled transcardially after thoracotomy under terminal anesthesia 30 minutes, 2, 6, 12 hours and 1, 3, 7 days after experiments in the different cohorts and centrifuged at 3,600 rpm for 7 minutes at 4° C. Blood samples taken from animals without any interventions severed as controls. Plasma samples were stored at −20° C. for further analysis. Plasma cytokine and HMGB-1 were measured using commercially available ELISA kits from Biosource, CA and Shino-test Corporation, Japan, respectively. The sensitivities of the assays were <3 pg/ml for TNFα, <7 pg/ml for IL-1β, <3 pg/ml for IL-6 and 1 ng/ml for HMGB-1."}, "C57-BL6 mice": {"test_system": "C57-BL6 mice", "experiment": "Fear conditioning, freezing to context after tibial surgery", "format": "in vivo", "conditions": "wild type mice, surgery 30 min after training, tested three days later", "protocol": "Fear conditioning tests. Mice were conditioned 30 minutes or 3 days prior to intervention by training with two cycles of tone and foot-shock pairings. In delay fear conditioning a foot-shock was administered during the last 2 seconds of each 20 seconds-lasting tone.\nIn trace fear conditioning, the foot-shock onset, lasting 2 seconds as in the previous paradigm, followed a 20-second gap after each tone termination. Three days after conditioning, mice were placed back in the original conditioning chamber for 270 seconds, where no tone or shock were presented, to assess recall of contextual fear memory. After 3 h mice were placed in a novel environment (different context from training) to test for auditory-cued memory. Following an initial baseline period of 135 seconds during which freezing was scored in absence of noise, the auditory cue was presented for the final 135 seconds of the test, and freezing was again recorded. (For further details please refer to supplemental methods).\nThe behavioral study was conducted using a conditioning chamber (Med. Associates Inc., St. Albans, VT, USA). The back- and the side-walls of the chamber were made of aluminium, whereas the front door and the ceiling were of transparent Plexiglas. The floor of the chamber consisted of 36 stainless steel rods (1 mm diameter) spaced 0.5 cm apart (center-to-center). […]"}, "C57BL/6 male mice": {"test_system": "C57BL/6 male mice", "experiment": "Observation of sickness behavior after LPS injection", "format": "in vivo", "conditions": "LPS 1 mg/kg i.p.; IL-1Ra pre-treatment", "protocol": "Animals. All the experiments were conducted under the UK Home Office approved license. Wild type C57BL/6 male mice, 12-14 weeks old, weighting 25-30 g were used and housed in groups of five in a 12-h-12-h light dark cycle, with controlled temperature and humidity with free access to food and water. IL-1R^−/− (kindly provided by Nancy Rothwell, University of Manchester) were bred in-house on a C57BL/6 background and age-matched to wild type counterparts. Seven days of acclimatization were allowed before starting any experiment. All the animals were checked on a daily basis and evidence of poor grooming, huddling, piloerection, weight loss, back arching and abnormal activity, were excluded in the experiments.\nTreatment. LPS derived from Escherichia Coli endotoxin ([…], InvivoGen, USA, 1 mg/kg) was dissolved in normal saline and injected intraperitoneally. IL-1Ra (Amgen, Anakinra 100 mg/kg, Nederlands) was given subcutaneously immediately before LPS administration. Dose response curve from LPS or IL-1Ra was obtained from our pilot studies to provoke or to suppress moderate degree of microglia activation respectively. Control animals were injected with equivalent volumes (0.1 ml) of saline. […]"}},
  "note": "Entries after “also recorded” stand apart in the source; their conditions may differ.",
  "data": [
    {"substance": "IL-1Ra: IL-1 receptor antagonist (Amgen, Anakinra)", "values": [
      {"measurement": "Plasma IL-6 at 6 hours after LPS with IL-1Ra", "setting": "IL-6; 6 hours", "value": "91.02 ± 15.17", "unit": "pg/mL"},
      {"measurement": "Plasma IL-6 at 24 hours after LPS with IL-1Ra", "setting": "IL-6; 24 hours", "value": "14.05 ± 2.34", "unit": "pg/mL"},
      {"measurement": "Freezing to context (delay fear conditioning) after surgery, effect of treatment", "setting": "C57-BL6 mice", "value": "prevented the decrement in postoperative freezing behavior; also recorded: significantly reduced the surgery-induced decrement in freezing behavior"},
      {"measurement": "Symptoms of sickness behavior after LPS, effect of IL-1Ra", "setting": "C57BL/6 male mice", "value": "abolished the main symptoms of sickness behavior"}
    ]}
  ]
}
